Consider nine compounds from patent publication US20260193278A1, “NOVEL PHTHALOCYANINE COMPOUNDS AND THE USE THEREOF FOR THE TREATMENT OF DISEASES” (RHODES UNIVERSITY, priority 2022, published 2026).

What all share (assay type): cell-based
One series relates to E. coli. Put plainly: Dark toxicity against E. coli, concentration study at 0 min (CFU counting). Conditions: in the dark; for Ecoli log CFU/ml (logarithmic reduction value): at the concentration of the μM column; for Ecoli μM (concentration corresponding to the logarithmic reduction): range tested 0-15 μM. On the procedure: (§1) 500 μM stock solutions of the samples were prepared in ultra-pure water (5% DMSO) and used at different concentrations in the biological assays.
(§2) Two bacterial strains were used for the PACT studies; S. aureus as a gram-(+) bacterium and E. coli as a gram-(−) negative bacterium. Stock cultures were grown aerobically in 6 mL of nutrient broth incubated at 37° C. on a rotary shaker (~200 rpm) to obtain bacteria cultures. The incubation was maintained until the optical density of the culture at 600 nm was determined to be between 0.6 and 0.8. The resulting bacterial solution was centrifuged to remove the broth, and bacterial cells were washed three times with PBS. The solution of the bacteria was prepared by diluting with PBS to obtain […] bacteria solutions corresponding to ~10^9 and ~10^8 colony forming units (CFU)/mL, respectively.
(§3) The bacteria/photosensitizer mixtures were incubated in an oven equipped with a shaker for 30 min in the dark at 37° C. before plating. 100 μL of solution was taken from the suspension and was immediately inoculated on agar plates to determine the activity at 0 min without treatment. The number of colonies was then counted on each plate after 18 h of incubation at 37° C. Control treatments were performed in the absence of photosensitizer. All experiments were carried out three times. The data for CFU/mL were converted to the logarithmic form.

Series [1] concerns S. aureus. Briefly: Dark toxicity against S. aureus, concentration study at 0 min (CFU counting). To be noted: for Staph log CFU/ml (logarithmic reduction value) / Staph μM (concentration corresponding to the logarithmic reduction): in the dark, at 0 min; for Staph log CFU/ml (logarithmic reduction value): at the concentration of the μM column; for Staph μM (concentration corresponding to the logarithmic reduction): range tested 0-10 μM. On the procedure: as §1, §2, §3

Series [2] relates to S. aureus. Briefly: Photodynamic inactivation of S. aureus (with irradiation). Conditions: after irradiation 20 min at 0.5, 1 and 2.5 μM. On the procedure:
as §2
as §3, with “Pc solutions were prepared by dissolving in water containing 5% DMSO and applied over the range of 0-10 μM for S. aureus and 0-15 μM for E. coli. The bacteria/photosensitizer” for “The bacteria/photosensitizer”

For series [3], the system named is MCF-7 (human breast adenocarcinoma) cells. Briefly: In vitro dark cytotoxicity, MCF-7 cells (anticancer studies). Conditions: MCF-7, dark; for Min. Death conc. / Cell death: 24 h; for Cell death: at the Min. Death conc. On the procedure: MCF-7 (human breast adenocarcinoma) cells were cultured in Dulbecco's modified Eagle's medium-10% fetal bovine serum (DMEM-FBS) and PSA (penicillin/streptomycin/Amphotericin B) at 37° C. in an incubator (5% CO2) in 75 cm^2 vented flasks. The cultures were grown as a monolayer. The growth cells were transferred to well plates by trypsinizing with 0.25% trypsin-EDTA. The Pc stock concentrations were prepared by separately dissolving them in DMSO (1%) and diluting in water and the Pc gradient concentration was prepared by taking known aliquots from the stock and finally made up to marked volume with supplemented media with phenol red.
It was studied from […] both in the dark. 100 μL each of the newly prepared gradient Pcs concentration of 0 μg/mL (control), 5 μg/mL, 10 μg/mL, 20 μg/mL, 40 μg/mL, 60 μg/mL 80 μg/mL, 100 μg/mL and 120 μg/mL were administered on the incubated seeded cells. The 96 well cell culture plates containing the cells and the Pcs were incubated at 37° C. and 5% CO2 in the dark for 24 h. After 24 h treatment, the wells were rinsed with 100 μL DPBS. Cell survival was expressed as percentage of control cells (cells without Pcs). Post treatment cell viability was measured using the cell proliferation […] reagent (WST-1 assay) on a Synergy 2 multi-mode microplate reader (BioTek®) at a wavelength of 450 nm according to the following equation 1.

For `C[n+]1c(-c2ccc(Oc3ccc4c(c3)C3=Nc5c6ccc(Oc7ccc(-c8[nH]c9cc(Cl)cc(Cl)c9[n+]8C)cc7)cc6c6[n]5[Zn][n]5c(c7ccc(Oc8ccc(-c9[nH]c%10cc(Cl)cc(Cl)c%10[n+]9C)cc8)cc7c5=NC5=NC(=N6)c6cc(Oc7ccc(-c8[nH]c9cc(Cl)cc(Cl)c9[n+]8C)cc7)ccc65)=NC4=N3)cc2)[nH]c2cc(Cl)cc(Cl)c21.[I-].[I-].[I-].[I-]` [Compound 193], in the series on E. coli, the “Ecoli log CFU/ml (logarithmic reduction value)” value came out at 8.79 log CFU/ml and the “Ecoli μM (concentration corresponding to the logarithmic reduction)” value worked out at 1 μM. In addition, in the series on S. aureus [1] (dark, 0 min, at 5 and 10 μM), the “log reduction (dark toxicity)” value is recorded as 9.63. In the series with S. aureus [1], the “Staph log CFU/ml (logarithmic reduction value)” value is listed as 9.61 log CFU/ml and the “Staph μM (concentration corresponding to the logarithmic reduction)” value amounted to 4 μM. Also, the “log reduction (photocytotoxicity)” value in the series on S. aureus [2] is reported as 9.63. In series [3], the “optimal concentration to kill the cancer cells” value was found to be 40 µM, the “Min. Death conc.” value worked out at 40 µM and the Cell death worked out at 72.7%. For the same compound, the “cancer cells killed at the optimal concentration” value in series [3] (at the optimal concentration) stood at 72.7%.
Consider `C[n+]1c(-c2ccc(Oc3ccc4c(c3)C3=Nc5c6ccc(Oc7ccc(-c8[nH]c9cc(Br)cc(Cl)c9[n+]8C)cc7)cc6c6[n]5[Co][n]5c(c7ccc(Oc8ccc(-c9[nH]c%10cc(Br)cc(Cl)c%10[n+]9C)cc8)cc7c5=NC5=NC(=N6)c6cc(Oc7ccc(-c8[nH]c9cc(Br)cc(Cl)c9[n+]8C)cc7)ccc65)=NC4=N3)cc2)[nH]c2cc(Br)cc(Cl)c21.[I-].[I-].[I-].[I-]` [Compound 234], for which, in the series on E. coli, the “Ecoli log CFU/ml (logarithmic reduction value)” value is 8.79 log CFU/ml and the “Ecoli μM (concentration corresponding to the logarithmic reduction)” value is reported as 2.5 μM. In the series with S. aureus [1], the “Staph log CFU/ml (logarithmic reduction value)” value turned out to be 9.25 log CFU/ml and the “Staph μM (concentration corresponding to the logarithmic reduction)” value is on record as 0.5 μM. Further, in series [3], the “Min. Death conc.” value came out at 60 µM and the Cell death is recorded as 90.4%.
On to `C[n+]1c(-c2ccc(Oc3ccc4c(c3)C3=Nc5c6ccc(Oc7ccc(-c8[nH]c9cc(Br)cc(Cl)c9[n+]8C)cc7)cc6c6[n]5[Cu][n]5c(c7ccc(Oc8ccc(-c9[nH]c%10cc(Br)cc(Cl)c%10[n+]9C)cc8)cc7c5=NC5=NC(=N6)c6cc(Oc7ccc(-c8[nH]c9cc(Br)cc(Cl)c9[n+]8C)cc7)ccc65)=NC4=N3)cc2)[nH]c2cc(Br)cc(Cl)c21.[I-].[I-].[I-].[I-]` [Compound 235], for which, in the series on E. coli, the “Ecoli log CFU/ml (logarithmic reduction value)” value came out at 8.79 log CFU/ml and the “Ecoli μM (concentration corresponding to the logarithmic reduction)” value was 12.5 μM. In addition, in the series on S. aureus [1], the “Staph log CFU/ml (logarithmic reduction value)” value came to 9.25 log CFU/ml and the “Staph μM (concentration corresponding to the logarithmic reduction)” value came to 10 μM. In series [3], the “Min. Death conc.” value turned out to be 10 µM and the Cell death was 34.8%.
In the case of `C[n+]1c(-c2ccc(Oc3ccc4c(c3)C3=Nc5c6ccc(Oc7ccc(-c8[nH]c9ccc(Cl)cc9[n+]8C)cc7)cc6c6[n]5[Zn][n]5c(c7ccc(Oc8ccc(-c9[nH]c%10ccc(Cl)cc%10[n+]9C)cc8)cc7c5=NC5=NC(=N6)c6cc(Oc7ccc(-c8[nH]c9ccc(Cl)cc9[n+]8C)cc7)ccc65)=NC4=N3)cc2)[nH]c2ccc(Cl)cc21.[I-].[I-].[I-].[I-]` [Compound 242], in the series with E. coli, the “Ecoli log CFU/ml (logarithmic reduction value)” value turned out to be 8.79 log CFU/ml and the “Ecoli μM (concentration corresponding to the logarithmic reduction)” value was 2.5 μM. In addition, in the series with S. aureus [1], the “Staph log CFU/ml (logarithmic reduction value)” value is listed as 9.24 log CFU/ml and the “Staph μM (concentration corresponding to the logarithmic reduction)” value is reported as 0.5 μM. Also, in series [3], the “Min. Death conc.” value was found to be 120 µM and the Cell death worked out at 49.8%.
With `C[n+]1c(-c2ccc(Oc3ccc4c(c3)C3=Nc5c6ccc(Oc7ccc(-c8[nH]c9ccc(Cl)cc9[n+]8C)cc7)cc6c6[n]5[Co][n]5c(c7ccc(Oc8ccc(-c9[nH]c%10ccc(Cl)cc%10[n+]9C)cc8)cc7c5=NC5=NC(=N6)c6cc(Oc7ccc(-c8[nH]c9ccc(Cl)cc9[n+]8C)cc7)ccc65)=NC4=N3)cc2)[nH]c2ccc(Cl)cc21.[I-].[I-].[I-].[I-]` [Compound 243], in the series with E. coli, the “Ecoli log CFU/ml (logarithmic reduction value)” value is 8.79 log CFU/ml and the “Ecoli μM (concentration corresponding to the logarithmic reduction)” value was 2.5 μM. Moreover, in the series with S. aureus [1], the “Staph log CFU/ml (logarithmic reduction value)” value is reported as 9.24 log CFU/ml and the “Staph μM (concentration corresponding to the logarithmic reduction)” value is 4 μM. Also, in series [3], the “Min. Death conc.” value was 120 µM and the Cell death is recorded as 62.4%.
As for `C[n+]1c(-c2ccc(Oc3ccc4c(c3)C3=Nc5c6ccc(Oc7ccc(-c8[nH]c9ccc(Cl)cc9[n+]8C)cc7)cc6c6[n]5[Cu][n]5c(c7ccc(Oc8ccc(-c9[nH]c%10ccc(Cl)cc%10[n+]9C)cc8)cc7c5=NC5=NC(=N6)c6cc(Oc7ccc(-c8[nH]c9ccc(Cl)cc9[n+]8C)cc7)ccc65)=NC4=N3)cc2)[nH]c2ccc(Cl)cc21.[I-].[I-].[I-].[I-]` [Compound 244], in the series with E. coli, the “Ecoli log CFU/ml (logarithmic reduction value)” value stood at 8.79 log CFU/ml and the “Ecoli μM (concentration corresponding to the logarithmic reduction)” value is listed as 15 μM. Moreover, in the series with S. aureus [1], the “Staph log CFU/ml (logarithmic reduction value)” value came out at 9.24 log CFU/ml and the “Staph μM (concentration corresponding to the logarithmic reduction)” value is on record as 10 μM. In addition, in series [3], the “Min. Death conc.” value worked out at 80 µM and the Cell death came out at 90.8%.
Consider “Tetrakis [4-(4-(5-bromo-1H-benzo[d]imidazol-2-yl)phenoxy phthalocyaninato] copper(II) tetraiodide [Compound 219]”, for which, in the series with E. coli, the “Ecoli log CFU/ml (logarithmic reduction value)” value worked out at 8.78 log CFU/ml and the “Ecoli μM (concentration corresponding to the logarithmic reduction)” value is listed as 12.5 μM. In addition, in the series on S. aureus [1], the “Staph log CFU/ml (logarithmic reduction value)” value stood at 9.15 log CFU/ml and the “Staph μM (concentration corresponding to the logarithmic reduction)” value is reported as 10 μM. In series [3], the “Min. Death conc.” value turned out to be 10 µM and the Cell death worked out at 36.9%.
“Tetrakis [4-(4-(5-bromo-1H-benzo[d]imidazol-2-yl)phenoxy phthalocyaninato] zinc(II) tetraiodide [Compound 217]”: in the series with E. coli, the “Ecoli log CFU/ml (logarithmic reduction value)” value came to 8.78 log CFU/ml and the “Ecoli μM (concentration corresponding to the logarithmic reduction)” value turned out to be 5 μM. Also, in the series on S. aureus [1], the “Staph log CFU/ml (logarithmic reduction value)” value is listed as 9.15 log CFU/ml and the “Staph μM (concentration corresponding to the logarithmic reduction)” value worked out at 1 μM. Further, in series [3], the “Min. Death conc.” value turned out to be 5 µM and the Cell death is 40.1%.
“Tetrakis [4-(4-(5-bromo-1H-benzo[d]imidazol-2-yl)phenoxy phthalocyaninato] zinc(II) tetraiodide [Compound 218]”: in the series on E. coli, the “Ecoli log CFU/ml (logarithmic reduction value)” value was found to be 8.78 log CFU/ml and the “Ecoli μM (concentration corresponding to the logarithmic reduction)” value was found to be 1 μM. Also, in the series on S. aureus [1], the “Staph log CFU/ml (logarithmic reduction value)” value turned out to be 9.15 log CFU/ml and the “Staph μM (concentration corresponding to the logarithmic reduction)” value is 0.5 μM. In series [3], the “Min. Death conc.” value is 10 µM and the Cell death was determined as 56.6%.
